# Values quoted from earlier work, collected in patent US20110039804A1, “Composition of Risedronate and Vitamin D3” (LANDSTEINER SCIENTIFIC, S.A. de C.V., priority 2006, published 2011).
# Like-named read-outs stand apart in the source and are kept apart here.
# Key:
# [1] = test system: patients with Paget's disease
# [2] = Paget's disease, 35 mg daily for two months
structure (smiles),measurement,setting,value
O=P([O-])(O)C(O)(Cc1cccnc1)P(=O)(O)O.[Na+] [sodium risedronate],systemic metabolism,in vivo,no evidence of systemic metabolism
same,effect of food on oral bioavailability,tablet administered with food,reduces
same,mid oral bioavailability,"tablet, oral",0.63%
"O=P(O)(O)C(O)(Cc1cccnc1)P(=O)(O)O [risedronate, 3-pyridil-1-hydroxyethylyden-1,1-bisphosphonic acid]",deoxypyridinoline/urinary creatinine ratio,[1]; [2],Significantly reduced
same,hydroxyproline/urinary creatinine ratio,[1]; [2],Significantly reduced
same,new fractures,"[1]; Paget's disease, 35 mg daily for two months, x-rays before and after 6 months",no new fractures
same,Patients with normalized serum alkaline phosphatase concentration,"[1]; Paget's disease, daily dose of 35 mg risedronate for two months",77%
same,dimension of lithic lesions in the axial and appendicular skeleton,"[1]; Paget's disease, x-rays before and after 6 months of treatment",Reduced
same,Patients staying on biochemical remission,[1]; during the 18 months following the two-month treatment,Fifty-three
same,average distribution volume in a state of balance,humans,6.3 L/kg
same,Tmax,"single oral administration, studied range 2.5 mg to 30 mg single dose",approximately 1 hour
CC(O)(P(=O)(O)O)P(=O)(O)O [etidronate],Patients with normalized serum alkaline phosphatase concentration,"[1]; Paget's disease, control group, etidronate 400 mg/day for 6 months",11%
